# “Also recorded” adds a separate entry of the source.
# Experiments:
# histamine receptor = assay: Histamine receptor binding
# [1] = tested on: cultured primary cortical neurons; assay: Mitochondrial membrane potential (TMRM) after A23187 in cultured primary cortical neurons; assay type: cell-based; conditions: rat E14 cortical neurons
# Description: (§1) FIG. 23: Example 45 Compound Preserves Mitochondrial Membrane Potential in Cultured Primary Cortical Neurons. Cortical neurons cultures from rats on embryonic day 14 were loaded with tetramethylrhodamine methyl ester (TMRM) dye after 6 days of maturation. […] The remaining panels are from cells that were exposed to the calcium ionophore A23187 at time zero. With vehicle-alone, cortical neuron mitochondrial membrane potential was rapidly lost after exposure to the ionophore. […] Results shown are representative of 10 fields analyzed in each of 2 experimental runs for all conditions.
# as §1, with “It was also examined whether” for “FIG. 23:”, “preserves mitochondrial membrane potential” for “Preserves Mitochondrial Membrane Potential”, “cultured primary cortical neurons (FIG. 23).” for “Cultured Primary Cortical Neurons.”
# [2] = tested on: dentate gyrus of NPAS3-deficient mice; assay: NPAS3-deficient mice: neurogenesis, apoptosis, morphology and electrophysiology of the dentate gyrus; assay type: in vivo, mouse (npas3−/−)
# Description: FIG. 14: Example 45 Compound has pro-neurogenic or neuroprotective efficacy in the dentate gyrus of NPAS3-deficient animals. Six 12 week old npas3^−/− mice were orally administered vehicle or Example 45 Compound (20 mg/kg/d) for 12 days, and also injected daily with BrdU (50 mg/kg). At the end of day 12, mice were sacrificed and tissue was stained for BrdU and doublecortin (DCX).
# Apoptosis in NPAS3-deficient animals was inhibited by treatment with Example 45 Compound (20 mg/kg/d, p.o., for 12 days), whereas analogous treatment with vehicle alone had no effect. Images shown are representative of 10-12 sections evaluated per animal, with 3-5 […] male NPAS3-deficient mice per group.
# Armed with these genotype- and region-specific deficits in both neuron morphology and electrophysiological activity, whether prolonged administration of Example 45 Compound might favorably repair either deficit in NPAS3-deficient animals was tested. […] Following oral gavage of pregnant female mice, 14 day embryos were recovered, dissected and processed by acetonitrile:water extraction so that Example 45 Compound levels could be measured in the embryonic brain. Daily administration of 20 mg/kg of Example 45 Compound to pregnant females yielded appreciable levels of the compound in the brain tissue of developing embryos. It was similarly observed that oral administration of the compound to lactating females led to delivery of Example 45 Compound to the brain tissue of weanling pups. […] Finally, it was observed that daily IP administration of Example 45 Compound to weaned pups at 20 mg/kg was sufficient to yield brain levels of Example 45 Compound at or above the level required to enhance adult neurogenesis.
# Female mice heterozygous at the NPAS3 locus were mated to heterozygous males. Two weeks post-mating, females were given a daily oral gavage of either 20 mg/kg of Example 45 Compound or vehicle-only formula. Dosing was continued throughout the last trimester of pregnancy, as well as the two week post-natal period of lactation. Following weaning, pups were given a daily IP dose of either 20 mg/kg Example 45 Compound or vehicle control. At about 7 weeks of age, mice were switched to oral gavage delivery of the same dose of Example 45 Compound. When mice were 3 months of age they were sacrificed and brain tissue was dissected and subjected to either Golgi-Cox staining or electrophysiological recording. […] The corresponding electrophysiological deficit in CA1 region of the hippocampus, however, was not affected (FIG. 13B), underscoring the specificity of Example 45 Compound to improving functioning of the dentate gyrus in this animal model.
# Recognizing that the reduced thickness of the granular layer of the dentate gyrus in NPAS3-deficient animals could be attributed to elevated levels of apoptosis of newborn hippocampal neural precursor cells, the effect of Example 45 Compound treatment on apoptosis in the hippocampus of NPAS3-deficient animals was examined through immunohistochemical staining of cleaved caspase 3 (CCSP3). […] It is thereby proposed that Example 45 Compound facilitated repair of the granular layer of the dentate gyrus in NPAS3-deficient mice by ameliorating a genotype-specific exacerbation of programmed cell death.
# [3] = tested on: newborn neurons in the dentate gyrus; assay: BrdU pulse-chase and doublecortin staining with oral dosing for 30 days; assay type: in vivo, mouse (C57/B6)
# Description: FIG. 10A and FIG. 10B: Example 45 Compound enhances the survival of newborn neurons in the dentate gyrus. […] (FIG. 10B) Example 45 Compound enhances hippocampal neurogenesis by promoting survival of newborn neurons. Three month old wild type C57/B6 male mice were exposed to orally-delivered Example 45 Compound or vehicle for 30 days (n=5 animals/group), administered a single pulse of BrdU via IP injection (150 mg/kg), and then sacrificed 1 hour, 1 day, 5 days or 30 days later for immunohistochemical detection of BrdU incorporation into cells localized in the subgranular layer of the dentate gyrus. […] In this longer-term trial, BrdU+ cells were observed both in the SGZ and the granular layer of the dentate gyrus.
# The nature of the cells produced in the subgranular zone of the dentate gyrus was investigated when Example 45 Compound was administered as follows. Animals were exposed to oral administration of Example 45 Compound for 30 days. Brain tissue was then prepared for immunohistochemical staining with an antibody to doublecortin (DCX), a microtubule-associated protein that serves as a marker of neurogenesis in the dentate gyrus by virtue of transient expression in newly formed neurons, but not glial cells, between the timing of their birth and final maturation (Brown et al., 2003).
# Example 45 Compound-mediated neurogenesis was next investigated to see whether it was attributable to increased cell proliferation or protection of newborn cells from cell death during the time between their birth and eventual incorporation into the granular layer of the dentate gyrus. This was accomplished by comparing the ability of Example 45 Compound to enhance either short- or long-term increases in the incorporation of BrdU in the dentate gyrus (FIG. 10B). Animals exposed to orally-delivered Example 45 Compound or vehicle for 30 days were administered a single pulse of BrdU via IP injection. Short-term effects on neuron birth were monitored by sacrificing animals one hour post-BrdU injection, followed by fixation of the tissue, sectioning and immunohistochemical detection of BrdU incorporation into cells localized in the subgranular layer of the dentate gyrus. […] It is hypothesized that these cells represent mature neurons that have migrated into the granular layer, completed the differentiation process, and incorporated themselves into the dentate gyrus as properly wired neurons. Observations supportive of this interpretation will be presented in a subsequent section of this document. In summary, these experiments give evidence that Example 45 Compound enhances the formation of neurons in the mature hippocampus, and that its mode of action would appear to take place at some point subsequent to their birth.
SMILES,histamine receptor binding (histamine receptor),dose giving full protection of mitochondrial membrane potential [1] [mM],"brain level in embryos and weanling pups ([2]; 20 mg/kg daily oral to pregnant or lactating females, LC/MS) [nM]","thickness of hippocampal subfields ([2]; 20 mg/kg/d from embryonic day 14 until 3 months of age, npas3−/− mice)","cleaved caspase 3 (CCSP3) staining, apoptosis in the dentate gyrus ([2]; 20 mg/kg/d p.o. for 12 days, NPAS3-deficient mice)","dendritic arborization of dentate gyrus granular neurons (Golgi-Cox) ([2]; extended daily treatment 20 mg/kg/d, npas3−/− mice)","synaptic responses (fEPSP) in hippocampal slices ([2]; extended treatment, npas3−/− mice)",increase of neurogenesis (BrdU) in npas3−/− mice ([2]; oral 20 mg/kg/d for 12 days),"health of treated animals ([2]; prolonged administration 20 mg/kg, relative to vehicle-only controls)",doublecortin (DCX) staining of newborn neurons ([3]; 20 mg/kg daily for 30 days by oral gavage),increase in BrdU+ cells compared to vehicle ([3]; 5 days after BrdU pulse) [%],increase in abundance of BrdU+ cells in the dentate gyrus relative to vehicle ([3]; daily oral dose for 30 days starting 24 hours after BrdU pulse) [fold],"BrdU+ cells versus vehicle, short term ([3]; oral for 30 days, 1 hour or 1 day after BrdU pulse)"
"COc1cccc(NCC(F)Cn2c3ccc(Br)cc3c3cc(Br)ccc32)c1 (stereo not shown) [Example P7C3A20, N-(3-(3,6-dibromo-9H-carbazol-9-yl)-2-fluoropropyl)-3-methoxyaniline]","no hERG channel binding, histamine receptor binding",,,,,,,,,,,,
OC(CNc1ccccc1)Cn1c2ccc(Br)cc2c2cc(Br)ccc21 (stereo not shown) [Example 45 Compound],,1,≥ 1350,selectively increased the thickness of the dentate gyrus granular cell layer,significantly reduced CCSP3 staining in the dentate gyrus; also recorded: statistically significant reduction in CCSP3 staining; also recorded: inhibited,robustly repaired morphological deficits in the dendritic branching; also recorded: enhanced dendritic arborization,normalized synaptic responses in the dentate gyrus but not the CA1 region,roughly 4 fold,"did not affect any aspect of the health of mothers, embryos, weanlings or young adult mice",increased dramatically; also recorded: substantially increased,25,5,did not lead to an elevation in the level of BrdU-positive cells relative to vehicle; also recorded: No significant differences

# Reference: patent US10183011B2, “Anti-depression compounds” (Board of Regents of the University of Texas System, priority 2009, dated 2019)
